Test results reported in patent US20080125318A1, “Fungicidal Mixtures Containing Enestroburin and at Least One Active Substance from the Group of Azoles” (priority 2004, published 2008).
Where two headings read alike, the source gives them in different places.

Columns and labels:
Botrytis cinerea = test: Activity against the gray mold pathogen Botrytis cinerea in the microtiter test; type: cell-based; settings: day 7 after inoculation, absorption 405 nm
Puccinia recondita = test: Protective activity against Puccinia recondita on wheat (brown rust of wheat), greenhouse; type: in vivo, Puccinia recondita on wheat seedlings cultivar Kanzler; settings: sprayed 5 days before inoculation, visual rating
Phytophthora infestans = type: cell-based; settings: day 7 after inoculation, absorption 405 nm

CO/C=C(/C(=O)OC)c1ccccc1CO/N=C(C)/C=C/c1ccc(Cl)cc1 [enestroburin (I), methyl 2-{2-[3-(4-chlorophenyl)-1-methylallylideneaminooxymethyl]phenyl}-3-methoxyacrylate]
Observed efficacy (%) (Botrytis cinerea; 4 ppm single active compound): 48% | Observed efficacy (%) (Puccinia recondita; 16 ppm single active compound): 22% | Observed efficacy (%) (Puccinia recondita; 63 ppm single active compound): 44% | Observed efficacy (%) (Phytophthora infestans; 2 ppm single active compound): 70% | Observed efficacy (%) (Phytophthora infestans; 4 ppm single active compound): 82%

Cc1ccc(-c2c(Cl)nc(C#N)n2S(=O)(=O)N(C)C)cc1 [cyazofamid (II-30), 4-chloro-2-cyano-N,N-dimethyl-5-(4-methylphenyl)-1H-imidazole-1-sulfon-amide]
Observed efficacy (%) (Botrytis cinerea; 1 ppm single active compound): 0% | Observed efficacy (%) (Botrytis cinerea; 4 ppm single active compound): 0%

OC(Cc1ccccc1Cl)(Cn1nc[nH]c1=S)C1(Cl)CC1 (centres unmarked) [prothioconazole (II-19), 2-[2-(1-chlorocyclopropyl)-3-(2-chlorophenyl)-2-hydroxypropyl]-2,4-dihydro[1,2,4]triazol-3-thione]
Observed efficacy (%) (Puccinia recondita; 4 ppm single active compound): 0%
